# Several values for one entry are separate records, joined by “and”; a condition that tells them apart may be missing. Equal values may be shown once. Read-outs that look alike come from different tables or passages of the source.
# Experiments:
# recurrent GBM patients [1] = experiment: Multiplex immunofluorescence of pre-treatment and on-treatment human GBM samples; conditions: tumors exposed to DOX vs before DOX
# GBM63 = experiment: Flow cytometry of antigen-presenting molecules in PDX cell line GBM63; type: cell-based, human; conditions: 5 hours exposure, 72 hours drug-free
# Procedure: (§1) Flow cytometry of PDX cell lines and HMC3 cells. PDX cell lines were kindly gifted. HMC3 cells were acquired from ATCC. GBM6, GBM63 and HMC3 cells were seeded on 6-well plates for treatment with increasing concentrations of DOX hydrochloride (D1515, Sigma Aldrich), IFN-γ (300-02, Peprotech) or 50 μM of TMZ (Accord). PDX and HMC3 cells were treated for 5 hours followed by 3 washes with PBS and cultured afterwards with Dulbecco's modified Eagle's medium (Corning) supplemented with 10% FBS (Hyclone) and 1% penicillin/streptomycin (Corning). 72 hours after treatment, PDX cells were harvested using Accutase cell detachment solution (Corning) and were stained initially with eBioscience Fixable Viability Dye eFluor 780 (Thermo Fisher) at 1:1000 dilution. Staining with HLA ABC AF-647 (311414) and HLA-DR BV421 (307636) was done for PDX cells. IFN-γ AF-700 (502520), HLA ABC FITC (311404), PD-L1 Pe-Cy7 (374506). All antibodies for this experiment were from Biolegend. Data was acquired using BD FACSymphony Flow Cytometer.
# GL261 tumor-bearing mice = conditions: LIPU/MB+IC+DOX
# Procedure: Cell culture. […] Both cell lines were cultured in Dulbecco's modified Eagle's medium (Gibco) supplemented with 10% fetal bovine serum (Gibco), and 1% penicillin/streptomycin (Gibco) in 5% CO2 incubators at 37° C. […] QPP4 cells were maintained in Dulbecco's modified Eagle's medium/F-12 (Gibco) supplemented with B-27 (Gibco), recombinant epidermal growth factor (EGF, 20 ng/ml, PeproTech), and recombinant basic fibroblast growth factor (bFGF, 20 ng/ml, PeproTech).
# Animal Experiments. […] All murine cell lines used for this study were routinely tested for mycoplasma and were confirmed negative before intracranial orthotopic injection. To perform intracranial injection of syngeneic murine glioma cell lines, mice were anesthetized with ketamine/xylazine cocktail. Artificial tears were used to prevent eye drying and protect the eye. […] Mice were monitored daily and were euthanized when they approached the endpoint (weight loss is >20% of pre-treatment body weight or loss of mobility or severe neurological disabilities such as seizure, circular motion, etc.) as described in the IACUC protocol.
# LIPU/MB. […] Sonications were performed for 120 seconds using a 25,000-cycle burst at a 1 Hz pulse repetition frequency and an acoustic pressure of 0.3 MPa as measured in water. After sonications, mice were moved to a clean cage, placed upon a heating pad, and monitored until they recovered from anesthesia.
# GBM6 = experiment: Flow cytometry of antigen-presenting molecules in PDX cell line GBM6; type: cell-based, human; conditions: 5 hours exposure, 72 hours drug-free, relative to no treatment
# Procedure: as §1
# GL261-bearing mice [2] = experiment: Immunophenotyping of GL261-bearing mice treated with increasing doses of liposomal DOX with or without US/MB; type: in vivo, mouse; conditions: 1 and 2 mg/kg; 5 mg/kg without US/MB
# Procedure: (§2) Ultrasound-mediated BBB opening in mouse models.
# (§3) After injection of glioma cells, the incision was closed using 9 mm stainless steel wound clips. On day 7 and 14 after IC implantation of glioma cell lines, mice were treated with liposomal DOX obtained from the pharmacy of Northwestern Memorial Hospital. On day 7, 10, 14, and 17 after IC injection of glioma cells, mice were treated with either […] of anti-mouse PD-1 (CD279) BE0146 (BioXcell) or rat IgG2a isotype control BE0089 (BioXcell).
# recurrent GBM patients [3] = experiment: Multiplex immunofluorescence of FcγRIIIA on TAMs, pre-DOX and during-DOX GBM samples; type: in vivo, human; conditions: DOX+aPD-1 with concomitant LIPU/MB, vs tissue before treatment, 4 patients
# From the text: Multiplex immunofluorescence staining/cellular identification and phenotyping. The multiplex panel included the following unconjugated antibodies: GFAP (glioma cells), CD11c (antigen presenting cells), CD68 (pan monocyte/macrophage), CD163 (macrophage scavenger receptor), FcγRIIIA (Receptor binding the Fc region of IgG, CD16A). All antibodies were validated using conventional immunofluorescence (IF) staining in conjunction with the corresponding fluorophore and the spectral 4′,6-diamidino-2-pheynlindole (DAPI; ThermoFisher Scientific) counterstain. For optimal concentration and best signal/noise ratio all antibodies were tested at three different dilutions, starting with the manufacturer-recommended dilution (MRD), then MRD/2 and MRD/4. Secondary Alexa fluorophore 555 (ThermoFisher Scientific) and Alexa fluorophore 647 (ThermoFisher Scientific) were used at 1/200 and 1/400 dilutions respectively. […]
# Slides are automatically scanned using the Lunaphore COMET™ with fluorescent high-power field scan (20× magnification microscope). […] The OME.TIFF images ware analyzed in Visiopharm software for immune populations' configuration and quantification.
# All digitized images were analyzed using the Visiopharm software platform (Hørsholm, Denmark). […]
# GL261-bearing mice [4] = experiment: Survival of GL261-bearing mice treated with liposomal DOX, aPD-1, US/MB; type: in vivo, mouse
# Procedure: as §2
# (§4) Cell lines and implantable syngeneic murine glioma models for survival and immunophenotyping studies. Murine GL261 cell line was acquired from the National Institutes of Health. CT2A cell line was acquired from Millipore. GL261 and CT2A were cultured in Dulbecco's modified Eagle's medium (Corning) supplemented with 10% FBS (Hyclone) and 1% penicillin/streptomycin (Corning) at 37° C. in incubators with humified atmosphere of 5% CO2 and 95% air.
# as §3
# HMC3 = experiment: FCGR3A / FcγRIIIA expression in HMC3 cells (qRT-PCR, flow cytometry); type: cell-based, human; conditions: DOX 5 hours, fresh media 72 hours
# Procedure: as §1
# CT2A-bearing mice = experiment: Survival of CT2A-bearing mice treated with aPD-1, liposomal DOX, US/MB; type: in vivo, mouse
# Procedure: as §2, §4, §3
# CT2A = experiment: H-2Kb expression in CT2A cells by flow cytometry; type: cell-based, mouse; conditions: similar DOX concentration range, compared to no treatment
# HMC3 cells = experiment: Flow cytometry of IFNγ, HLA ABC and PD-L1 in HMC3 cells; type: cell-based, human; conditions: 5-hour pulse, 72 hours, specific DOX concentrations
# Procedure: as §1
# GL261 = experiment: H-2Kb expression in GL261 cells by flow cytometry; type: cell-based, mouse; conditions: similar DOX concentration range, compared to no treatment
# [5] = DOX concentration in blood, tumor and peritumoral brain tissue of GBM patients (LC/MS); type: in vivo, human; conditions: for concentration at 48 h: human, intravenous, GBM patients, 48 hours after liposomal DOX with US/MB
# Procedure: (§5) Patients received additional treatment cycles with sonications in an outpatient setting in which the US device was activated by percutaneous access with a single-use transdermal needle concomitantly with the injection of 10 μL/kg of IV microbubbles (DEFINITY, Lantheus, Billerica, USA) and 200 mg of pembrolizumab and 30 mg of liposomal DOX.
# Determination of the DOX concentration in blood, tumor and peritumoral brain tissue. Two GBM patients undergoing surgery for resection of tumor with implantation of the Sonocloud-9 US device were studied for this analysis. […] Sonicated and non-sonicated peritumoral brain samples were identified taking into account their location relative to the sonication field of the US device. Non-sonicated peritumoral brain samples were acquired first with the use of a new set of surgical instruments for each sample. Every peritumoral brain tissue was washed with saline solution to remove blood. These samples were sectioned into 30 mg pieces and were flash-frozen for further quantification of DOX levels. DOX was quantified in tumor, peritumoral, and plasma using LC/MS (6500 QTRAP AB Sciex equipped with a SIL-20AC XR HPLC, Shimadzu Scientific Instruments).
# [6] = tested on: brain metastases from melanoma; experiment: Tumor volume in a melanoma brain metastasis patient, SonoCloud-1 (NCT04021420); type: in vivo, human
# From the text: Analysis of SoniMel tumor volume of a brain metastatic patient. This patient was part of an ongoing clinical trial (NCT04021420) evaluating the combination of the immune checkpoint antibodies, ipilimumab and nivolumab, with BBB disruption employing the SC1 US device. The zone targeted by the skull implanted SC1 US emitter was modeled with a cylindrical region of interest (ROI) with a 10-mm diameter and 55-mm length. This ROI covered a part of the left-hemisphere tumoral mass and a part of its margin. The patient received administration every three weeks of 1 mg/kg of nivolumab (Brystol Myers Squibb) during 30 minutes of infusion and 3 mg/kg of ipilimumab (Brystol Myers Squibb) during 90 minutes of infusion prior to sonication. The SC1 US device was activated in combination with IV injection of microbubbles (0.1 mL/kg, SonoVue, Bracco) for a duration of 270 seconds at an acoustic pressure of 0.78 MPa, similar to the parameters used in a recent clinical trial in patients with recurrent GBM (Idbaih, A., et al., Clin Cancer Res 25, 3793-3801 (2019)). The evolution of the tumor volumes was evaluated for both sonicated and non-sonicated tumor masses using a semiautomatic active contour segmentation method (ITK Snap) (Yushkevich, P. A., et al., Neuroimage 31, 1116-1128 (2006)) using contrast-enhanced gadolinium T1w MR images with a threshold set at 1.25 times the median brain intensity. […]
# [7] = mouse, in vivo
# Procedure: C57BL/6 mice were employed for sonication experiments in which they were anesthetized with ketamine/xylazine cocktail intraperitoneally (ketamine 100 mg/kg, xylazine 10 mg/kg).
# Determination of the concentration of nivolumab in brain from C57BL/6 mice. Non-tumor bearing C57BL/6 mice were used for this experiment. […] Nivolumab ELISA kit (ab237651, Abcam) was employed to determine nivolumab concentrations in the brain and blood. Mice were anesthetized with ketamine/xylazine cocktail and treated with artificial tears once fully anesthetized. Next, mice were treated with nivolumab through retro-orbital route. The dose used for mice was calculated based on allometric scaling which considers the animal equivalent dose based on body surface area converted from the human dose of 3 mg/kg of nivolumab (Nair, A. B. et al., J Basic Clin Pharm 7, 27-31 (2016)). After treatment with nivolumab, mice were placed in the US transducer holder for sonication as described above. Intravenous NaFI (Sigma-Aldrich) previously dissolved in PBS was administered immediately after sonication at a dose of 20 mg/kg in 100 μL. 1 and 4 hours after sonication, mice were euthanized using a CO2 chamber and brains were harvested and placed in PBS. […] Absorbance of samples (set to 450 nm) was read in Cytation 5 multi-mode reader (Biotek). […]
# [8] = Pembrolizumab concentration in plasma, glioma and peritumoral brain of GBM patients (ELISA); type: in vivo, human
# Procedure: as §5
# Determination of the concentration of pembrolizumab in human glioma and peritumoral brain tissue Two GBM patients undergoing surgery for resection of tumor with implantation of the Sonocloud-9 US device were studied for this analysis. Pembrolizumab ELISA kit (ab237652, Abcam) was employed to determine pembrolizumab concentrations. After surgical resection, all samples were weighed. […] The rest of the experiment was done following manufacturer's kit protocol.
molecule,measurement,setting,value
"COc1cccc2c1C(=O)c1c(O)c3c(c(O)c1C2=O)C[C@@](O)(C(=O)CO)C[C@@H]3O[C@H]1C[C@H](N)[C@H](O)[C@H](C)O1 [DOX, Doxorubicin]",TMEM119+ cells expressing HLA I,recurrent GBM patients [1]; P=0.0092,increased number
same,CD163+ cells expressing HLA I,recurrent GBM patients [1]; P=0.0712,increased number
same,DOX concentration range that upregulated HLA ABC and HLA-DR expression,GBM63,0.15 to 0.6 M
same,long-term survivors,GL261 tumor-bearing mice,16.7%
same,DOX concentration range that upregulated HLA ABC and HLA DR expression,GBM6,0.15 to 1.2 M
same,IFN-γ by glioma-associated myeloid cells,GL261-bearing mice [2],no other doses of DOX nor the 5 mg/kg of dose delivered in the absence of US/MB elicited IFN-γ
same,frequency of FcγRIIIA+ CD68+ and CD11c+ TAMs,recurrent GBM patients [3],increase in the frequency
same,percentage of CD4 IFN-γ+ TNF-α+ T cells,"GL261-bearing mice [4]; DOX alone vs control, P=0.04",higher percentage
same,long-term survivors,"GL261-bearing mice [4]; GL261, anti-PD-1 antibody added to DOX plus US/MB, vs DOX plus US/MB",same percentage of long-term survivors
same,"FCGR3A expression, times higher than in untreated microglia",HMC3,~16 times
same,survival in Cd8−/− and Cd8+/+ mice,"CT2A-bearing mice; DOX plus anti-PD-1 antibody with US/MB, P=0.0452",survival benefit was only observed in mice that had intact immunity
same,long-term survival percentage,CT2A-bearing mice; anti-PD-1 antibody added to DOX plus US/MB,80%
same,H-2Kb expression,CT2A,upregulated
same,expression of HLA ABC,HMC3 cells,promoted
same,expression of PD-L1,HMC3 cells,promoted
same,production of IFNγ,HMC3 cells,promoted
same,H-2Kb expression,GL261,upregulated
same,"fold increase in DOX concentration, sonicated relative to non-sonicated peritumoral brain samples","[5]; 2 GBM patients, 48 hours, 95% CI of mean 1.406-2.659",2.033 fold
same,concentration at 48 h,"[5]; plasma, read-out: DOX plasma levels",8230 ng/mL and 14.2 µM
same,concentration at 48 h,"[5]; tumor, read-out: DOX tumor concentrations",146 ng/g to 2290 ng/g and 251 nM to 3.94 µM
"ipilimumab: IgG1 anti-CTLA-4 antibody, given with nivolumab",tumor mass targeted by the SonoCloud-1 (sonicated),[6]; ipilimumab 3 mg/kg and nivolumab 1 mg/kg prior to sonication,began to shrink after the second sonication
same,non-sonicated tumor mass,"[6]; ipilimumab 3 mg/kg and nivolumab 1 mg/kg, until GammaKnife on day 130",continued to grow
nivolumab: human IgG4 antibody that binds the PD-1 receptor,nivolumab concentration in the plasma,[7],similar
pembrolizumab: anti-PD-1 antibody,"fold increase in pembrolizumab concentration, sonicated vs non-sonicated peritumoral brain regions","[8]; 2 GBM patients, SonoCloud-9",2.076 fold
same,anti-PD-1 antibody concentration in the serum,"[8]; two GBM patients, 48 hours after treatment",39.450 µg/mL and 45.099 µg/mL
